Experimental data as given in US12201609B2, “Saroglitazar for the treatment of hepatocellular carcinoma” (CADILA HEALTHCARE LIMITED, priority 2018, dated 2025).

System: Hepatocellular Carcinoma Induced by Intraperitoneal Injection of Diethylnitrosamine in C57/BL6 Mice
Test: Saroglitazar efficacy in hepatocellular carcinoma induced by diethylnitrosamine (DEN) injection and CDAHFD feeding in mice
Assay type: in vivo, C57BL/6 male mice
Settings: CDAHFD-DEN mice; for Serum ALT levels, % Change Vs Disease Control / Serum AST levels, % Change Vs Disease Control / Serum TG levels, % Change Vs Disease Control / % animals showing liver tumor / No. of animal with tumor / No. of liver tumors/animal / Serum ALT levels / Serum AST levels / Serum TG levels: p.o.; for % animals showing liver tumor / No. of animal with tumor / No. of liver tumors/animal: 27 weeks treatment; for Serum ALT levels / Serum AST levels / Serum TG levels: at termination
Source text: Evaluation of Saroglitazar's efficacy in Hepatocellular Carcinoma Induced by Intraperitoneal Injection of Diethylnitrosamine in C57/BL6 Mice.
In this study, hepatocellular carcinoma (HCC) was induced in C57BL/6 male mice first by injecting them with diethylnitrosamine (DEN) and by then feeding them a choline-deficient, L-amino acid-defined, high-fat diet (CDAHFD); Developed an experimental mouse model of hepatocellular carcinoma (Ohno T, Shimizu M, Shirakami Y, Baba A, Kochi T, Kubota M, et al. (2015) Metformin Suppresses Diethylnitrosamine-Induced Liver Tumorigenesis in Obese and Diabetic C57BL/KsJ−+Leprdb/+Leprdb Mice. PLoS ONE 10(4): e0124081; Journal of Cancer, 2018; 9(5): 914-922;)
The objective of this study was to evaluate the efficacy of Saroglitazar for prevention and or regression of hepatocellular carcinoma in mice after intraperitoneal injection of diethylnitrosamine and feeding of Choline deficient, L-amino acid-defined, High-fat Diet.
HCC was induced in C57BL/6 male mice by feeding them a choline-deficient, L-amino acid-defined, high-fat diet (CDAHFD) and administration of diethylnitrosamine (DEN). DEN was administered one-time by intraperitoneal route at the age of 3-weeks. Treatment with Saroglitazar (1 and 3 mg/kg) was initiated after 8 weeks of CDAHFD initiation and continued for 27 weeks.
After 8 weeks of CDAHFD diet (or DEN administration) blood collection was performed for serum ALT, AST and on the basis serum ALT level animals were divided in to following groups: • 1. Control for CDAHFD+Vehicle (n=10)—Normal Control • 2. CDAHFD—Saline+Vehicle (n=10)—CDAHFD Control • 3. CDAHFD—DEN+Vehicle (n=15)—Disease Control • 4. CDAHFD—DEN+Saroglitazar 1 mg/kg, p.o. (n=15)—D-Saro (1 mg/kg, p.o.) • 5. CDAHFD—DEN+Saroglitazar 3 mg/kg, p.o. (n=15)—D-Saro (3 mg/kg, p.o.)
Test compound formulation was prepared in Tween 80 and 0.5% sodium CMC in ratio of 0.5:99.5 in such that volume of administration will be 10 ml/kg.
Treatment along with diet was continued for 27 weeks.
In this study almost 50% animals from each group were terminated at 31 weeks after DEN injection and remaining 50% animals were sacrificed at 35 weeks after DEN administration (i.e. completion of 27 weeks of treatment). At termination, blood collection was performed for serum parameters like ALT, AST and TG. Animals were sacrificed; spleen and liver will be collected and weighed. Liver will be observed for presence of tumors, number of tumors and size of tumors. Liver was collected for liver biochemistry, histology

CCO[C@@H](Cc1ccc(OCCn2c(C)ccc2-c2ccc(SC)cc2)cc1)C(=O)O [Saroglitazar]
prevention of hepatic carcinogenesis (3 mg/kg dose): 100%
tumor in liver (in words) (3 mg/kg dose): did not show any tumor in liver
reduction in serum ALT (3 mg/kg, vs disease control): 40%
reduction in serum AST (3 mg/kg, vs disease control): 44%
effect on liver tumor incidence (in words) (1 and 3 mg/kg): dose dependent effect on liver tumor incidence
serum triglycerides levels (in words) (1 and 3 mg/kg): dose dependent reduction
Serum ALT levels, % Change Vs Disease Control (Saroglitazar 1 mg/kg): −33.6%
Serum AST levels, % Change Vs Disease Control (Saroglitazar 1 mg/kg): −36.2%
Serum TG levels, % Change Vs Disease Control (Saroglitazar 1 mg/kg): −38.4%
% animals showing liver tumor (Saroglitazar 1 mg/kg): 20.0%
No. of animal with tumor (Saroglitazar 1 mg/kg): 3 out of 15
No. of liver tumors/animal (Saroglitazar 1 mg/kg): 0.3
Serum ALT levels (Saroglitazar 1 mg/kg): 232.3 U/L
Serum AST levels (Saroglitazar 1 mg/kg): 231.1 U/L
Serum TG levels (Saroglitazar 1 mg/kg): 42.7 mg/dL
Serum ALT levels, % Change Vs Disease Control (Saroglitazar 3 mg/kg): −39.9%
Serum AST levels, % Change Vs Disease Control (Saroglitazar 3 mg/kg): −43.9%
Serum TG levels, % Change Vs Disease Control (Saroglitazar 3 mg/kg): −54.6%
% animals showing liver tumor (Saroglitazar 3 mg/kg): 0.0%
No. of animal with tumor (Saroglitazar 3 mg/kg): 0 out of 15
No. of liver tumors/animal (Saroglitazar 3 mg/kg): 0.0
Serum ALT levels (Saroglitazar 3 mg/kg): 210.5 U/L
Serum AST levels (Saroglitazar 3 mg/kg): 203.0 U/L
Serum TG levels (Saroglitazar 3 mg/kg): 31.5 mg/dL
liver injury markers, serum ALT and AST (in words) (Saroglitazar treatment): significant reduction
